Data from patent US7238694B2, “Rifamycin imino derivatives effective against drug-resistant microbes” (Cumbre Pharmaceuticals, Inc., priority 2004, dated 2007).
Values after ≈ are worked out from the molar mass of the structure shown.

Assays:
Assay type in all cases: cell-based
[1] = tested on: Streptococcus pyogenes ATCC19615; assay: MIC, microbroth dilution (NCCLS); details: rifS strain, THY Broth, 37° C., read-out: MIC
[2] = tested on: Streptococcus pneumoniae ATCC6303; assay: MIC, microbroth dilution (NCCLS); details: rifS strain, THY Broth with 1 mg/mL catalase, 5% CO2, 37° C., read-out: MIC
[3] = tested on: Staphylococcus aureus ATCC29213; assay: MIC, microbroth dilution (NCCLS); details: rifS strain, Cation-Adjusted Mueller-Hinton Broth, 37° C., read-out: MIC
[4] = tested on: Staphylococcus aureus MT1222 gyrA^A116E grlB^S80F; assay: microbe, parasite or virus in culture; details: cipR strain, Cation-Adjusted Mueller-Hinton Broth, 37° C., read-out: MIC
[5] = tested on: Staphylococcus epidermidis ATCC12228; assay: MIC, microbroth dilution (NCCLS); details: rifS strain, Cation-Adjusted Mueller-Hinton Broth, 37° C., read-out: MIC
[6] = tested on: Staphylococcus aureus ATCC29213 rpoB^H418Y; assay: microbe, parasite or virus in culture; details: Staphylococcus aureus, ATCC29213; rifR strain; Cation-Adjusted Mueller-Hinton Broth, 37° C.; read-out: MIC
[7] = tested on: Haemophilus influenzae ATCC10211; assay: MIC, microbroth dilution (NCCLS); details: rifS strain, BHI Broth with NAD and hematin, 37° C., read-out: MIC

| SMILES | MIC [1] [µg/mL] | MIC [2] [µg/mL] | MIC [3] [µg/mL] | MIC [4] [µg/mL] | MIC [5] [µg/mL] | MIC [6] [µg/mL] | MIC [7] [µg/mL] |
| --- | --- | --- | --- | --- | --- | --- | --- |
| CO[C@H]1/C=C/O[C@@]2(C)Oc3c(C)c(O)c4c(O)c(c(/C=N/N5CCC(NC6(C7CCN(c8c(F)cc9c(=O)c(C(=O)O)cn(C%10CC%10)c9c8Cl)C7)CC6)CC5)c(O)c4c3C2=O)NC(=O)/C(C)=C\C=C\[C@H](C)[C@H](O)[C@@H](C)[C@@H](O)[C@@H](C)[C@H](OC(C)=O)[C@@H]1C (mixture of isomers) [Example 45, (R/S)-3-[4-[1-[1-(3-Carboxy-1-cyclopropyl-7-fluoro-8-chloro-4-oxo-4H-quinolin-7-yl)pyrrolidin-3-yl]cycloprop-1-ylamino]piperidin-1-ylaminomethylenyl]rifamycin SV] | 0.008 to 0.03 (≈ 0.0066 to 0.0248 µM) | 0.008 to 0.06 (≈ 0.0066 to 0.0495 µM) | 0.008 to 1 (≈ 0.0066 to 0.825 µM) | 0.008 to 0.125 (≈ 0.0066 to 0.103 µM) | 0.008 to 0.1 (≈ 0.0066 to 0.0825 µM) | 0.06 to 16 (≈ 0.0495 to 13.2 µM) | 0.125 to 4 (≈ 0.103 to 3.3 µM) |
| COc1c(N2CCC(C3(NC4CCN(/N=C/c5c6c(O)c7c(O)c(C)c8c(c7c5O)C(=O)[C@@](C)(O/C=C/[C@H](OC)[C@@H](C)[C@@H](OC(C)=O)[C@H](C)[C@H](O)[C@H](C)[C@@H](O)[C@@H](C)/C=C/C=C(/C)C(=O)N6)O8)CC4)CC3)C2)c(F)cc2c(=O)c(C(=O)O)cn(C3CC3)c12 (mixture of isomers) [Example 46] | 0.008 to 0.03 (≈ 0.00663 to 0.0248 µM) | 0.008 to 0.06 (≈ 0.00663 to 0.0497 µM) | 0.008 to 1 (≈ 0.00663 to 0.828 µM) | 0.008 to 0.125 (≈ 0.00663 to 0.104 µM) | 0.008 to 0.1 (≈ 0.00663 to 0.0828 µM) | 0.06 to 16 (≈ 0.0497 to 13.3 µM) | 0.125 to 4 (≈ 0.104 to 3.31 µM) |
| CO[C@H]1/C=C/O[C@@]2(C)Oc3c(C)c(O)c4c(O)c(c(/C=N/N5CCN(c6cc7c(cc6F)c(=O)c(C(=O)O)cn7C6CC6)CC5)c(O)c4c3C2=O)NC(=O)/C(C)=C\C=C\[C@H](C)[C@H](O)[C@@H](C)[C@@H](O)[C@@H](C)[C@H](OC(C)=O)[C@@H]1C [Example 4, 3-[4-(3-Carboxy-1-cyclopropl-6-fluoro-4-oxo-1,4-dihydroquinolin-7-yl)piperazin-1-yl-aminomethylenyl]rifamycin SV] | 0.008 to 0.03 (≈ 0.00759 to 0.0285 µM) | 0.008 to 0.06 (≈ 0.00759 to 0.0569 µM) | 0.008 to 1 (≈ 0.00759 to 0.949 µM) | 0.008 to 0.125 (≈ 0.00759 to 0.119 µM) | 0.008 to 0.1 (≈ 0.00759 to 0.0949 µM) | 0.06 to 16 (≈ 0.0569 to 15.2 µM) | 0.125 to 4 (≈ 0.119 to 3.79 µM) |
| CO[C@H]1/C=C/O[C@@]2(C)Oc3c(C)c(O)c4c(c3C2=O)C(=O)C(/C=N/N2CCN(c3cc5c(cc3F)c(=O)c(C(=O)O)cn5C3CC3)CC2)=C(NC(=O)/C(C)=C\C=C\[C@H](C)[C@H](O)[C@@H](C)[C@@H](O)[C@@H](C)[C@H](OC(C)=O)[C@@H]1C)C4=O [Example 5, 3-[4-(3-Carboxy-1-cyclopropl-6-fluoro-4-oxo-1,4-dihydroquinolin-7-yl)-piperazin-1-yl-aminomethylenyl]rifamycin S] | 0.008 to 0.03 (≈ 0.0076 to 0.0285 µM) | 0.008 to 0.06 (≈ 0.0076 to 0.057 µM) | 0.008 to 1 (≈ 0.0076 to 0.95 µM) | 0.008 to 0.125 (≈ 0.0076 to 0.119 µM) | 0.008 to 0.1 (≈ 0.0076 to 0.095 µM) | 0.06 to 16 (≈ 0.057 to 15.2 µM) | 0.125 to 4 (≈ 0.119 to 3.8 µM) |
| CO[C@H]1/C=C/O[C@@]2(C)Oc3c(C)c(O)c4c(c3C2=O)C(=O)C(/C=N/N2CCN(c3nc5c(cc3F)c(=O)c(C(=O)O)cn5-c3ccc(F)cc3F)CC2)=C(NC(=O)/C(C)=C\C=C\[C@H](C)[C@H](O)[C@@H](C)[C@@H](O)[C@@H](C)[C@H](OC(C)=O)[C@@H]1C)C4=O [Example 10, 3-[4-[3-Carboxy-1-(2,4-difluoro-phenyl)-6-fluoro-4-oxo-1,4-dihydro-[1,8]naphthyridine-7-yl]-piperazin-1-ylaminomethylenyl]rifamycin S] | 0.008 to 0.03 (≈ 0.00711 to 0.0267 µM) | 0.008 to 0.06 (≈ 0.00711 to 0.0533 µM) | 0.008 to 1 (≈ 0.00711 to 0.889 µM) | 0.008 to 0.125 (≈ 0.00711 to 0.111 µM) | 0.008 to 0.1 (≈ 0.00711 to 0.0889 µM) | 0.06 to 16 (≈ 0.0533 to 14.2 µM) | 0.125 to 4 (≈ 0.111 to 3.56 µM) |
| COc1c(N2CC3CCCN(/N=C/C4=C5NC(=O)/C(C)=C\C=C\[C@H](C)[C@H](O)[C@@H](C)[C@@H](O)[C@@H](C)[C@H](OC(C)=O)[C@H](C)[C@@H](OC)/C=C/O[C@@]6(C)Oc7c(C)c(O)c(c(c7C6=O)C4=O)C5=O)C3C2)c(F)cc2c(=O)c(C(=O)O)cn(C3CC3)c12 (stereo partly drawn) [Example 13, 3-[6-(3-Carboxy-1-cyclopropyl-6-fluoro-8-methoxy-4-oxo-1,4-dihydroquinolin-7-yl)-octahydropyrrolo[3,4-b]pyridin-1-yl-aminomethylenyl]rifamycin S] | 0.008 to 0.03 (≈ 0.00713 to 0.0267 µM) | 0.008 to 0.06 (≈ 0.00713 to 0.0535 µM) | 0.008 to 1 (≈ 0.00713 to 0.891 µM) | 0.008 to 0.125 (≈ 0.00713 to 0.111 µM) | 0.008 to 0.1 (≈ 0.00713 to 0.0891 µM) | 0.06 to 16 (≈ 0.0535 to 14.3 µM) | 0.125 to 4 (≈ 0.111 to 3.56 µM) |
